Experiments:
GRK2 = target: T1, GRK2 (Homo sapiens, UniProt P25098); experiment: ADPGlo GRK2 Inhibition Assay (Example 8); assay type: biochemical; details: ADPGlo GRK2 enzyme assay; read-out: A: Enzymatic GRK2: IC50 (nM) (Example 8)
T1 construct: purchased SignalChem A14-10G
T1 sequence (P25098 1-689): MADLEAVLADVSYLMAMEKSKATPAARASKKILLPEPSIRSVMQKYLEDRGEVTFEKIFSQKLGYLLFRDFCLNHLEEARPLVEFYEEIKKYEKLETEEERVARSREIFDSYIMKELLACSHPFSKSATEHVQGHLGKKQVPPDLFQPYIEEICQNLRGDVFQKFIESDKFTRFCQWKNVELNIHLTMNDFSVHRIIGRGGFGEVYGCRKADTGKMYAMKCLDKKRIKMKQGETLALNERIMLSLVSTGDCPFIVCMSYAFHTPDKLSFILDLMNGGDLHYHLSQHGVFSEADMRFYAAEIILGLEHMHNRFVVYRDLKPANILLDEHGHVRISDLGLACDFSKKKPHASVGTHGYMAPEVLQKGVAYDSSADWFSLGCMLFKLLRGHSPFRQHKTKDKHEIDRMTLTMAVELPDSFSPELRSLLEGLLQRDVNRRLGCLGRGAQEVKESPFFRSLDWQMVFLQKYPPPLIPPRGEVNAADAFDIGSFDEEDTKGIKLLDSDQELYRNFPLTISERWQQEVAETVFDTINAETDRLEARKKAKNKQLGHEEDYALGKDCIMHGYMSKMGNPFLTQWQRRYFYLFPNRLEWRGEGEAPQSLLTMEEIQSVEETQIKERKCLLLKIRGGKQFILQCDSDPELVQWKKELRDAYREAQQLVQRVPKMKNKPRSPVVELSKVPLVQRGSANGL
Procedure, shortened: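 GRK2 (15 nM 2× enzyme solution) was preincubated 15 min with compound, then reacted 180 min at room temperature with 2× mix of 20 μM ATP plus GRKtide in HEPES pH 7.5, MgCl2, Tween-20, DTT. ADP was detected by ADP-Glo luminescence. Percent inhibition was normalised to enzyme and no-enzyme controls, with dose-response curves from threefold dilutions starting at 100 μM.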

[1] = system: PAXF1657 control empty vector cell line; experiment: 7-day proliferation assay, PAXF1657 control empty vector cell line (Example 9); assay type: cell-based; details: 168 h; Cell Line: PAXF1657 empty vector (EV) cell line; 7-day; read-out: C: 7-day proliferation assay: IC50 GeoMean
Procedure, shortened: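 Seven-day growth in PAXF1657 lines engineered for GRK2 overexpression or knockout, measured by CellTiter-Glo; compounds tested at 30 μM-0.0002 μM final and replenished once at day 3.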

Row | IC50 (GRK2) [nM] | Structure (SMILES) | IC50 [1] [µM]
1 | 17.8 | Cc1cc(C)c(CNC(=O)c2cccc(NCc3nnc(-c4ccncn4)n3C)c2)cn1 | 0.803
2 | 69 | CC(NC(=O)c1cccc(NCc2nnc(-c3ccncn3)n2C)c1)c1ncccc1F (stereo not shown) | 2.66
3 | 46.4 | C#Cc1ccccc1CNC(=O)c1cccc(NCc2nnc(-c3ccncn3)n2C)c1 | 2.32
4 | 61 | Cc1nccnc1C(C)NC(=O)c1cccc(NCc2nnc(-c3ccncn3)n2C)c1 (stereo not shown) | > 12.5
5 | 14.3 | Cc1nncc(CNC(=O)c2cccc(NCc3nnc(-c4ccncn4)n3C)c2)c1C | 1.46
6 | 17.6 | Cn1c(CNc2cccc(C(=O)NCc3cc(C#N)ccc3F)c2)nnc1-c1ccncn1 | > 1.28
7 | 26.6 | Cn1c(CNc2cccc(C(=O)NC3COc4ccc(F)cc43)c2)nnc1-c1ccncn1 (stereo not shown) | 1.26
8 | 14.8 | CN(C)c1ccccc1CNC(=O)c1cccc(NCc2nnc(-c3ccncn3)n2C)c1 | 1.61
9 | 13.2 | Cn1c(CNc2cccc(C(=O)NCc3cccc4c3OCO4)c2)nnc1-c1ccncn1 | 0.681
10 | 30.1 | COc1nc(C)ccc1CNC(=O)c1cccc(NCc2nnc(-c3ccncn3)n2C)c1 | > 30
11 | 24.7 | COc1cc(F)ccc1CNC(=O)c1cccc(NCc2nnc(-c3ccncn3)n2C)c1 | 28
12 | 65 | Cn1c(CNc2cccc(C(=O)NC3CC(O)c4ccccc43)c2)nnc1-c1ccncn1 (stereo not shown) | > 30
13 | 67.5 | COc1ccc(C)nc1CNC(=O)c1cccc(NCc2nnc(-c3ccncn3)n2C)c1 | > 12.4
14 | 15.3 | Cn1c(CNc2cccc(C(=O)NCc3cncc4c3CCC4)c2)nnc1-c1ccncn1 | > 11.7
15 | 48.9 | Cn1c(CNc2cccc(C(=O)NCc3ccccc3OCCO)c2)nnc1-c1ccncn1 | > 6.45
16 | 43.4 | Cn1c(CNc2cccc(C(=O)N[C@H](CO)c3cc(F)ccc3F)c2)nnc1-c1ccncn1 | > 30
17 | 45.4 | COc1ccccc1C(CO)NC(=O)c1cccc(NCc2nnc(-c3ccncn3)n2C)c1 (stereo not shown) | > 13
18 | 83.1 | Cn1c(CNc2cccc(C(=O)NC(CO)c3ccc(F)cc3F)c2)nnc1-c1ccncn1 (stereo not shown) | 3.07
19 | 35.6 | Cn1c(CNc2cccc(C(=O)NC(CCO)c3ccccc3F)c2)nnc1-c1ccncn1 (stereo not shown) | 0.536
20 | 57.1 | Cn1c(CNc2cccc(C(=O)NCc3ccccc3S(C)(=O)=O)c2)nnc1-c1ccncn1 | 1.95
21 | 37.2 | COc1ccc(CNC(=O)c2cccc(NCc3nnc(-c4ccncn4)n3C)c2)c(OC)n1 | 0.797
22 | 38.1 | Cn1c(CNc2cccc(C(=O)NC3C(=O)NCc4ccccc43)c2)nnc1-c1ccncn1 (stereo not shown) | > 30

Row | IC50 (GRK2) [nM] | Structure (SMILES) | IC50 [1] [µM]
23 | 52 | Cn1c(CNc2cccc(C(=O)NCc3cc(S(C)(=O)=O)ccc3F)c2)nnc1-c1ccncn1 | > 16
24 | 58.8 | Cc1nccn1-c1ncccc1CNC(=O)c1cccc(NCc2nnc(-c3ccncn3)n2C)c1 | > 25.8
25 | 50 | Cn1c(CNc2cccc(C(=O)NCc3ccccc3N3CCOCC3)c2)nnc1-c1ccncn1 | 3.25
26 | 9.42 | Cn1c(CNc2cccc(C(=O)NCc3c(F)cccc3NS(C)(=O)=O)c2)nnc1-c1ccncn1 | 3.25
27 | 65.8 | CC(C)NS(=O)(=O)c1ccccc1CNC(=O)c1cccc(NCc2nnc(-c3ccncn3)n2C)c1 | > 15.9
28 | 54 | Cn1c(CNc2cccc(C(=O)NCc3ccccc3S(=O)(=O)NC(C)(C)C)c2)nnc1-c1ccncn1 | 4.29
29 | 13.8 | Cn1c(CNc2cccc(C(=O)NCc3ccncc3Br)c2)nnc1-c1ccncn1 | 0.633
30 | 18.4 | Cn1c(CNc2cccc(C(=O)NCc3ccccc3CO)c2)nnc1-c1ccncn1 | 1.56
31 | 50.2 | Cc1ccnc(CNC(=O)c2cccc(NCc3nnc(-c4ccncn4)n3C)c2)c1F | > 30
32 | 28.1 | COc1ccncc1CNC(=O)c1cccc(NCc2nnc(-c3ccncn3)n2C)c1 | 5.09
33 | 22.6 | CCc1cccnc1CNC(=O)c1cccc(NCc2nnc(-c3ccncn3)n2C)c1 | 4.51
34 | 46.1 | CN(C)c1ncccc1CNC(=O)c1cccc(NCc2nnc(-c3ccncn3)n2C)c1 | 1.16
35 | 37.3 | COc1nccc(C)c1CNC(=O)c1cccc(NCc2nnc(-c3ccncn3)n2C)c1 | 0.93
36 | 28.5 | COc1ccc(CNC(=O)c2cccc(NCc3nnc(-c4ccncn4)n3C)c2)c(C)n1 | > 30
37 | 6.03 | COc1ccccc1C(C#N)NC(=O)c1cccc(NCc2nnc(-c3ccncn3)n2C)c1 (stereo not shown) | 0.468
38 | 20.2 | Cn1c(CNc2cccc(C(=O)NC3CS(=O)(=O)c4ccccc43)c2)nnc1-c1ccncn1 (stereo not shown) | 1.44
39 | 45.9 | CN1Cc2ccccc2C(NC(=O)c2cccc(NCc3nnc(-c4ccncn4)n3C)c2)C1 (stereo not shown) | 7.67
40 | 19.2 | Cn1c(CNc2cccc(C(=O)NCc3c(F)ccc4[nH]cnc34)c2)nnc1-c1ccncn1 | 22.6
41 | 30 | Cn1c(CNc2cccc(C(=O)NCc3ccccc3-n3ccnc3)c2)nnc1-c1ccncn1 | 1.15
42 | 47.2 | CN(C)S(=O)(=O)c1ccccc1CNC(=O)c1cccc(NCc2nnc(-c3ccncn3)n2C)c1 | 21.5
43 | 55.7 | Cn1c(CNc2cccc(C(=O)NCc3ccccc3Cn3cncn3)c2)nnc1-c1ccncn1 | 7.41
44 | 67.2 | CCC(NC(=O)c1cccc(NCc2nnc(-c3ccncn3)n2C)c1)c1ccccc1OCC(=O)NC (stereo not shown) | > 27.8

Row | IC50 (GRK2) [nM] | Structure (SMILES) | IC50 [1] [µM]
45 | 53.5 | Cn1c(CNc2cccc(C(=O)NCc3ccncc3-c3cc[nH]n3)c2)nnc1-c1ccncn1 | > 23.3
46 | 16.7 | Cn1c(CNc2cccc(C(=O)NCc3cccnc3OC(F)F)c2)nnc1-c1ccncn1 | 1.44
47 | 15.5 | Cc1ncncc1[C@@H](C)NC(=O)c1cccc(NCc2nnc(-c3ccncn3)n2C)c1 | > 30
48 | 19 | Cn1c(CNc2cccc(C(=O)NC3CC(=O)c4ccccc43)c2)nnc1-c1ccncn1 (stereo not shown) | 0.867
49 | 56.7 | Cn1c(CNc2cccc(C(=O)NC3CCOc4ncccc43)c2)nnc1-c1ccncn1 (stereo not shown) | > 30
50 | 14.9 | Cc1cc(C)c(CNC(=O)c2cccc(NCc3nnc(-c4ccncn4)n3C)c2)c(=O)[nH]1 | > 30
51 | 10.8 | Cc1cc(CO)cc(C)c1CNC(=O)c1cccc(NCc2nnc(-c3ccncn3)n2C)c1 | 0.738
52 | 11.2 | Cc1ccc(C)c(CNC(=O)c2cccc(NCc3nnc(-c4ccncn4)n3C)c2)n1 | > 30
53 | 18.4 | Cn1c(CNc2cccc(C(=O)NCc3cccc4c3CCNC4)c2)nnc1-c1ccncn1 | > 30
54 | 8.5 | Cn1c(CNc2cccc(C(=O)NCc3cccc4c3CCOC4)c2)nnc1-c1ccncn1 | > 30
55 | 71.5 | Cn1c(CNc2cccc(C(=O)NCc3ccccc3CN3CCOCC3)c2)nnc1-c1ccncn1 | 6.71
56 | 53.3 | CN(C)CCNc1ccccc1CNC(=O)c1cccc(NCc2nnc(-c3ccncn3)n2C)c1 | > 30
57 | 32.1 | Cn1c(CNc2cccc(C(=O)NCc3ccccc3NS(C)(=O)=O)c2)nnc1-c1ccncn1 | > 30
58 | 42 | CN(CCO)S(=O)(=O)c1ccccc1CNC(=O)c1cccc(NCc2nnc(-c3ccncn3)n2C)c1 | > 11.8
59 | 18.3 | CNc1ncccc1CNC(=O)c1cccc(NCc2nnc(-c3ccncn3)n2C)c1 | 1.63
60 | 48.2 | Cn1c(CNc2cccc(C(=O)NCc3ncccc3Cl)c2)nnc1-c1ccncn1 | > 16.4
61 | 82.9 | Cn1c(CNc2cccc(C(=O)NCc3cnn(CCF)c3)c2)nnc1-c1ccncn1 | > 5.6
62 | 64.2 | Cn1c(CNc2cccc(C(=O)NCc3ccc(C(F)F)cc3)c2)nnc1-c1ccncn1 | > 13.1
63 | 12.6 | COc1cccc(CNC(=O)c2cccc(NCc3nnc(-c4ccncn4)n3C)c2)c1C | > 12.6
64 | 71.6 | Cn1c(CNc2cccc(C(=O)NCc3cnn4c3CCCC4)c2)nnc1-c1ccncn1 | > 24.8
65 | 63.7 | Cn1c(CNc2cccc(C(=O)NCc3ccc(F)c(F)c3)c2)nnc1-c1ccncn1 | 9.33

— patent publication US20230009608A1, “GRK2 INHIBITORS AND USES THEREOF” (Cygnal Therapeutics, Inc., priority 2020, published 2023)
